Experimental data reported in patent US8906868B2, “Aminoglycoside derivatives” (Rempex Pharmaceuticals, Inc., priority 2010, dated 2014).

Tests used:
[1] = Aminoglycoside cytotoxicity in HK-2 cells (Alamar Blue); type: cell-based, Human; details: human
Method: (§1) Human kidney cortex proximal tubule cells (HK-2) were purchased from ATCC and maintained according to manufacturer's recommendations in Keratinocyte Serum-Free Media (SFM; Invitrogen), with 0.05 mg/ml bovine pituitary extract and 5 ng/ml of Epidermal growth factor.
(§2) Solutions of aminoglycosides at a concentration of 50 mg/mL (both control and novel test compounds) were prepared in sterile deionized water. Before treatment of cells, the concentrated drug solutions were diluted to the appropriate concentration in Keratinocyte SFM {20, 10, 5, 2.5, 1.25, 0.6, 0.3, and 0 mM}. Pentamidine was used as a positive control.
(§3) HK-2 cells were seeded at 2.5*10^4 cells/well density in 96-well plates in Keratinocyte SFM and placed in a 37° C. tissue culture CO2 incubator. […]. Each treatment was performed in duplicate. […] Drug solutions were aspirated and replaced with 0.1 ml of 5% Alamar Blue (Abd Serotec) cell proliferation reagent in Keratinocyte SFM. Plates were read on a Molecular Devices Gemini EM fluorometer pre-warmed at 37° C. at […]. Plates were read at 0 and 4 hrs, and were incubated at 37° C. in a CO2 incubator in between reads. The fluorescence signal at the 0 h timepoint was subtracted from that at 4 h to account for background fluorescence.
(§4) The cytotoxicity data were reported as the amount of drug producing a 50% decrease in Alamar Blue signal relative to the no drug treatment control.

Sa 287 aac(6′) + aph(2″) = test: microbe, parasite or virus in culture; type: cell-based, Staphylococcus aureus; details: Table 5
Procedure, shortened: (§5)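 Minimum inhibitory concentration is determined by CLSI broth microdilution in cation-adjusted Mueller Hinton broth, with 18 h incubation at 35° C.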

PAM3072 aac(6′)-II = test: microbe, parasite or virus in culture; type: cell-based, Pseudomonas aeruginosa; details: Table 5
Procedure, shortened: as §5

PAM3073 aac(6′)-I = test: microbe, parasite or virus in culture; type: cell-based, Pseudomonas aeruginosa; details: Table 5
Procedure, shortened: as §5

ACM1006 acc(6′)-Ib = test: microbe, parasite or virus in culture; type: cell-based, Acinetobacter baumannii; details: Table 4
Procedure, shortened: as §5

[2] = tested on: Acinetobacter baumannii (ATCC 19606); test: MIC, broth microdilution; details: QC strain, Table 2
EC1002 aph(3′)-IV = test: organism not typed; type: cell-based
Procedure, shortened: (§6)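 Strains carrying aminoglycoside-modifying enzymes were tested by CLSI broth microdilution in cation-adjusted Mueller Hinton broth. Final inoculum was 5×10^5 CFU/ml; growth after 18 hours at 35° C was scored at 600 nm.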

EC1001 acc(6′)-Ib = test: microbe, parasite or virus in culture; type: cell-based, Escherichia coli; details: Table 4
Procedure, shortened: as §5

[3] = tested on: ECM6007 aac(6′) + aph(2″); test: microbe, parasite or virus in culture; type: cell-based, Escherichia coli; details: Table 4
Procedure, shortened: as §5

[4] = tested on: Staphylococcus aureus (ATCC 29213); test: MIC, broth microdilution
ECM6003 rmtB = test: microbe, parasite or virus in culture; type: cell-based, Escherichia coli; details: Table 3
Procedure, shortened: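 Broth microdilution per CLSI M7-A7 in cation-adjusted Mueller Hinton broth with 2-fold serial dilutions and 5×10^5 CFU/ml inoculum. Incubated 18 hours at 35 °C; MIC read by turbidity at 600 nm and confirmed visually.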

ACM1005 ATCC 19004 = test: MIC, broth microdilution; type: cell-based, Acinetobacter baumannii; details: Table 4
Procedure, shortened: as §5

ECM6011 aph(3′)-I = test: microbe, parasite or virus in culture; type: cell-based, Escherichia coli
Procedure, shortened: as §6

ECM6009 aac(3)-II = test: microbe, parasite or virus in culture; type: cell-based, Escherichia coli
Procedure, shortened: as §6

ECM6006 aph(3′)-III = test: microbe, parasite or virus in culture; type: cell-based, Escherichia coli
Procedure, shortened: as §6

ECM6010 ant(2″)-I = test: microbe, parasite or virus in culture; type: cell-based, Escherichia coli
Procedure, shortened: as §6

[5] = tested on: Human kidney cortex proximal tubule cells (HK-2); test: Aminoglycoside cytotoxicity in HK-2 cells (Alamar Blue); type: cell-based; details: HK-2 cells, 50% decrease in Alamar Blue signal; read-out: IC50 @ 24 hrs
Method: as §1, §2, §3, §4

[6] = tested on: Pseudomonas aeruginosa (ATCC 27853); test: MIC, broth microdilution
[7] = tested on: Escherichia coli (ATCC 25922); test: MIC, broth microdilution
[8] = tested on: Klebsiella pneumonia (ATCC 43816); test: MIC, broth microdilution; details: QC strain, Table 2

Question: Which IC50 at 24 h [1] does the source give for NCC[C@H](O)C(=O)N[C@@H]1C[C@H](N)[C@@H](O[C@H]2O[C@H](CN)CC[C@H]2N)[C@H](O)[C@H]1O[C@H]1O[C@H](CO)[C@@H](O)[C@H](N)[C@H]1O [Arbekacin, reference compound] here?
Answer: > 20 mM

Question: What does the source list for Gentamicin [reference compound]?
Answer: Compound MIC on Bacterial Strains: Staphylococcus aureus Sa 287 aac(6′) + aph(2″) (Sa 287 aac(6′) + aph(2″)): C (MIC of greater than 8 μg/ml); Compound MIC on Bacterial Strains: Pseudomonas aeruginosa PAM3072 aac(6′)-II (PAM3072 aac(6′)-II): C (MIC of greater than 8 μg/ml); Compound MIC on Bacterial Strains: Pseudomonas aeruginosa PAM3073 aac(6′)-I (PAM3073 aac(6′)-I): B (MIC of greater than 1 μg/ml to 8 μg/ml); Compound MIC on Bacterial Strains: Acinetobacter baumannii ACM1006 acc(6′)-Ib (ACM1006 acc(6′)-Ib): B (MIC of greater than 1 μg/ml to 8 μg/ml); Compound MIC on Bacterial Strains: A. baumannii ATCC 19606 [2]: C (MIC of greater than 8 μg/ml); Compound MIC on Bacterial Strains: EC1002 aph(3′)-IV (EC1002 aph(3′)-IV): B (key: A: MIC of 1 μg/ml or less; B: MIC of greater than 1 μg/ml to 8 μg/ml; MIC of greater than 8 μg/ml); Compound MIC on Bacterial Strains: Escherichia coli EC1001 acc(6′)-Ib (EC1001 acc(6′)-Ib): B (MIC of greater than 1 μg/ml to 8 μg/ml); Compound MIC on Bacterial Strains: Escherichia coli ECM6007 aac(6′) + aph(2″) [3]: B (MIC of greater than 1 μg/ml to 8 μg/ml); Compound MIC on Bacterial Strains: S. aureus ATCC 29213 ([4]; QC strain, Table 2): A (MIC of 1 μg/ml or less); Compound MIC on Bacterial Strains: Staphylococcus aureus SAM1000 ATCC 29213 ([4]; Table 5): A (MIC of 1 μg/ml or less); Compound MIC on Bacterial Strains: ECM6003 rmtB (ECM6003 rmtB): C (MIC of greater than 8 μg/ml); Compound MIC on Bacterial Strains: Acinetobacter baumannii ACM1005 ATCC 19004 (ACM1005 ATCC 19004): A (MIC of 1 μg/ml or less); Compound MIC on Bacterial Strains: ECM6011 aph(3′)-I (ECM6011 aph(3′)-I): B (key: A: MIC of 1 μg/ml or less; B: MIC of greater than 1 μg/ml to 8 μg/ml; MIC of greater than 8 μg/ml); Compound MIC on Bacterial Strains: ECM6009 aac(3)-II (ECM6009 aac(3)-II): C (key: A: MIC of 1 μg/ml or less; B: MIC of greater than 1 μg/ml to 8 μg/ml; MIC of greater than 8 μg/ml); Compound MIC on Bacterial Strains: ECM6006 aph(3′)-III (ECM6006 aph(3′)-III): B (key: A: MIC of 1 μg/ml or less; B: MIC of greater than 1 μg/ml to 8 μg/ml; MIC of greater than 8 μg/ml); Compound MIC on Bacterial Strains: ECM6010 ant(2″)-I (ECM6010 ant(2″)-I): C (key: A: MIC of 1 μg/ml or less; B: MIC of greater than 1 μg/ml to 8 μg/ml; MIC of greater than 8 μg/ml); IC50 [5]: > 20 mM; Compound MIC on Bacterial Strains: P. aeruginosa ATCC 27853 ([6]; QC strain, Table 2): A (MIC of 1 μg/ml or less); Compound MIC on Bacterial Strains: Pseudomonas aeruginosa PAM3034 ATCC 27853 ([6]; Table 5): A (MIC of 1 μg/ml or less); Compound MIC on Bacterial Strains: E. coli ATCC 25922 ([7]; QC strain, Table 2): A (MIC of 1 μg/ml or less); Compound MIC on Bacterial Strains: ECM6000 ATCC 25922 ([7]; Table 3): A (MIC of 1 μg/ml or less); Compound MIC on Bacterial Strains: Escherichia coli ECM6000 ATCC 25922 ([7]; Table 4): A (MIC of 1 μg/ml or less); Compound MIC on Bacterial Strains: K. pneumonia ATCC 43816 [8]: A (MIC of 1 μg/ml or less)
